In patent US12419962B2, “Quinazolines, pharmaceutical compositions, and therapeutic applications” (BioTheryX, Inc., priority 2022, dated 2025) one finds DC50 and Dmax data, which are given here for two compounds.

Each structure is given as a SMILES string. Bounds are passed on as bounds.

The assay deals with T1, HiBiT-tagged endogenous SOS1 protein (Homo sapiens, UniProt Q07889).
T1 construct: HEK293 cells were engineered to express a HiBiT-tagged endogenous SOS1 protein; endogenous in cells; host or cells: HEK293 cells, engineered so that endogenous SOS1 carries a HiBiT tag
T1 sequence (Q07889 1-1333): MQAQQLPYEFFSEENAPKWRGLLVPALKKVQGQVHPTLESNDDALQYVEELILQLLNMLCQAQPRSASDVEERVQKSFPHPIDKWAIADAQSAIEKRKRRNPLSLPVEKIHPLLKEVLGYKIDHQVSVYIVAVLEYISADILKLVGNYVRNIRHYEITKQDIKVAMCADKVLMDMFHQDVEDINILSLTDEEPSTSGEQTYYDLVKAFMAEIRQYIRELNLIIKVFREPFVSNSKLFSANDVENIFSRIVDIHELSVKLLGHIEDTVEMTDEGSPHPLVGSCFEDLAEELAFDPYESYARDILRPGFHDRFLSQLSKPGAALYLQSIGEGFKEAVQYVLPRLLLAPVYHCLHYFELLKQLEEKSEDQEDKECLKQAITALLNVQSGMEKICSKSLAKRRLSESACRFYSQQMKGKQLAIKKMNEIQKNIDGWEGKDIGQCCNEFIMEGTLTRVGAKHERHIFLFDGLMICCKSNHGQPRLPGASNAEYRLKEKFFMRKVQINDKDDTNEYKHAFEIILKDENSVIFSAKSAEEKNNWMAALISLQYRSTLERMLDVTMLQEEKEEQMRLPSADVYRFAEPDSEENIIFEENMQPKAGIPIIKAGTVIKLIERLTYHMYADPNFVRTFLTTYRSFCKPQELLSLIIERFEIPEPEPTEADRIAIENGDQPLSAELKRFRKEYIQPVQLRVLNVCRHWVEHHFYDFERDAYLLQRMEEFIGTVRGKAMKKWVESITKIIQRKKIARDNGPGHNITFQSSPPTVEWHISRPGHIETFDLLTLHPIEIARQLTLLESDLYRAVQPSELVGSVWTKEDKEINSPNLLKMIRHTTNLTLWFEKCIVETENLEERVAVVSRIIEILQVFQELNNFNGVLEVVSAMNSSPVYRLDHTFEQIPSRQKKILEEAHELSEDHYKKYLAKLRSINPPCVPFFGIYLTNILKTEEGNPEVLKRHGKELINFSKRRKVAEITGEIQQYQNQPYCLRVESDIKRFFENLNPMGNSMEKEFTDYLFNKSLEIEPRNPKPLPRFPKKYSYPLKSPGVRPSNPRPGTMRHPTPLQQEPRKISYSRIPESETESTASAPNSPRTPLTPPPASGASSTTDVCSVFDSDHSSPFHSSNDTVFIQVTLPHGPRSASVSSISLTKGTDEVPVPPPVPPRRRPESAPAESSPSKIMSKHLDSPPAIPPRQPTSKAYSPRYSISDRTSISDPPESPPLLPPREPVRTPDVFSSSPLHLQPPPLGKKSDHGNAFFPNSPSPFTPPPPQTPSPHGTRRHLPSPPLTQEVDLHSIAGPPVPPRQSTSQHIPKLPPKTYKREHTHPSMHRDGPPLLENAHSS
Briefly: SOS1-HiBiT Degradation Assay. It counts as cell-based. To be noted: HEK293 cells expressing HiBiT-tagged endogenous SOS1, 6 h treatment. The protocol:
HEK293 cells were engineered to express a HiBiT-tagged endogenous SOS1 protein. The cells were cultured in DMEM media supplemented with 10% fetal bovine serum, streptomycin, and penicillin. The cells were seeded in a white walled 384-well plate at 12,500 cells/well in 50 μL culture media. The cells were incubated at 37° C. under 5% CO2 overnight. The cells were then treated with DMSO (control) or a compound for 6 h at 37° C. under 5% CO2. After incubation, 25 μL media was removed from each cell and 25 μL NANO-GLO® lytic detection reagent was added to each well. After a 10 min incubation with shaking, luminescence was measured using a PERKINELMER ENVISION® multimode plate reader.
The results are summarized in Table 1, where “A” represents a DC50 of no greater than 100 nM, “B” represents a DC50 of greater than 100 nM and no greater than 500 nM; “C” represents a DC50 of greater than 500 nM and no greater than 2 μM; and “D” represents a DC50 of greater than 2 μM; and where “A′” represents a Dmax of no less than 70%, “B′” represents a Dmax of less than 70% and no less than 50%; “C′” represents a Dmax of less than 50% and no less than 30%; and “D′” represents a Dmax of less than 30%. Compounds C1 and C2 are (R)-2-(3-(1-((6,7-dimethoxy-2-methylquinazolin-4-yl)amino)ethyl)phenyl)-2,2-difluoroethan-1-ol and (R)—N-(1-(3-amino-5-(trifluoromethyl)phenyl)ethyl)-6,7-dimethoxy-2-methylquinazolin-4-amine, respectively.

Take `COc1cc2nc(C)nc(N[C@H](C)c3cccc(C(F)(F)CO)c3)c2cc1OC` [Compound C1, (R)-2-(3-(1-((6,7-dimethoxy-2-methylquinazolin-4-yl)amino)ethyl)phenyl)-2,2-difluoroethan-1-ol]: the DC50 (commonly the midpoint of the concentration-degradation curve) was over 10 µM and the Dmax (as a rule, the greatest extent of degradation seen) turned out to be 0%.

With `COc1cc2nc(C)nc(N[C@H](C)c3cc(N)cc(C(F)(F)F)c3)c2cc1OC` [Compound C2, (R)—N-(1-(3-amino-5-(trifluoromethyl)phenyl)ethyl)-6,7-dimethoxy-2-methylquinazolin-4-amine], the DC50 is over 10 µM and the Dmax amounted to 0%.
